# ChEMBL document CHEMBL5729292, “Bromodomain inhibitor compound and use thereof” (2022)
# Molecular target: Bromodomain-containing protein 4 (Homo sapiens, UniProt O60885)
# Experiment: Inhibitory Activity Assay of BRD4 Small Molecule Compounds: AlphaScreen kit (Perkin Elmer) was used to detect effect of the compounds on binding of BRD4 bromodomain to acetylated histone H4 polypeptide. […] Each of fusion proteins containing (His)6tag can be recognized and bound by Ni2+. […] The donor microbeads were coated with streptavidin and can bind to biotinylated acetylated H4 polypeptide. The acceptor microbeads were coated with Ni2+ ions and can bind to the BD1 protein with (His)6tag. When the BD1 protein recognized the acetylated H4 polypeptide, the donor microbeads and the acceptor microbeads can be brought closer to a certain distance. Within this range, the donor microbeads can produce singlet oxygen after being irradiated with a 680 nm excitation light, and transfer the singlet oxygen to the acceptor microbeads. After a series of cascade chemical reactions, the acceptor microbeads will generate an emission wave of 520-620 nm, which in turn can be detected a signal. In this experiment, the test system was 20 μL, and the compound needs to be diluted in buffer 1 (20 mM HEPES pH 7.4, 150 mM NaCl, 1 mM dithiothreitol). First, a solution of 20 mM compound was consecutively diluted twice, each in 10 times, totally in 100 times to a concentration of 200 μM. […] The recombinant BD1 protein solution and the acetylated histone H4 polypeptide were diluted in the buffer 2 (20 mM HEPES pH 7.4, 150 mM NaCl, 0.01% Triton X-100, 0.1% bovine serum protein (w/v, Sigma), 1 mM dithiothreitol) to 100 nM and 100 nM respectively, to obtain a 8×BD1 protein working solution and a 4× acetylated histone H4 polypeptide working solution. The donor microbeads and the acceptor microbeads are diluted together in the buffer 2, both in the ratio of 1:100, to obtain a 2× microbead mixed working solution. The plate was added with 2.5 μL of BD1 protein working solution and incubated with the compound for 20 min at room temperature, and then added with 5 μL of acetylated histone H4 polypeptide working solution and incubated at room temperature for 5 min, and finally added with 10 μL of microbead mixed working solution and incubated at room temperature for 60 min. […] IC50 values of the compounds at different concentrations for inhibiting the binding of BD1 protein to acetylated H4 polypeptide were calculated by fitting using GraphPad Prism 5.0 software.
row,IC50 [nM],Compound
1,119,Cc1ccccc1Oc1ccc(NS(C)(=O)=O)cc1-c1cc(C)c2c(=O)[nH]ccn12
2,471,Cc1cc(-c2cc(NS(C)(=O)=O)ccc2OCC2CC2)n2cn[nH]c(=O)c12
3,131,CCS(=O)(=O)c1ccc(Oc2ccccc2C)c(-c2cc(C)c3c(=O)[nH]ccn23)c1
4,114,Cc1cc(-c2cc(NS(C)(=O)=O)ccc2Oc2ccccc2)n2cn[nH]c(=O)c12
5,132,Cc1cc(-c2cc(S(C)(=O)=O)ccc2Oc2ccc(F)cc2F)n2cc[nH]c(=O)c12
6,910,Cc1cc(-c2ccccc2Oc2ccccc2)n2nc[nH]c(=O)c12
7,124,Cc1cc(-c2cc(NS(C)(=O)=O)ccc2OC2CCOCC2)n2cn[nH]c(=O)c12
8,138,Cc1cc(-c2cc(CS(C)(=O)=O)ccc2Nc2ccccc2)n2cc[nH]c(=O)c12
9,905,Cc1cc(-c2ccccc2Oc2ccccc2)n2cc[nH]c(=O)c12
10,161,Cc1cc(-c2cc(CS(C)(=O)=O)ccc2Nc2ccc(F)cc2F)n2cc[nH]c(=O)c12
11,4.5,Cc1cc(-c2cc(CS(C)(=O)=O)ccc2Oc2ccc(F)cc2F)n2cn[nH]c(=O)c12
12,434,Cc1cc(-c2cc(NS(C)(=O)=O)ccc2Oc2ccccc2)n2nc[nH]c(=O)c12
13,76.9,Cc1cc(-c2cc(NS(C)(=O)=O)ccc2Oc2ccccc2)n2c1C(=O)NCC2
14,92.6,Cc1cc(-c2cc(NS(C)(=O)=O)ccc2Oc2ccc(F)cc2F)n2cn[nH]c(=O)c12
15,134,Cc1cc(-c2cc(S(C)(=O)=O)ccc2Oc2ccccc2)n2cc[nH]c(=O)c12
